The IC50 is the concentration at which inhibition is half-maximal.

Assay [1] deals with Human primary T cells. Briefly: IL-2 ELISA, Human Primary T Cell, Anti-CD3+CD28+ (Example 3). Format: cell-based. The settings on record: Homo sapiens, T-cell, 24 h, anti-CD3+CD28 stimulation. The method in brief: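 IL-2 was read by ELISA after stimulation on wells pre-coated with 1 ug/ml αCD3 and 5 μg/ml αCD28. Before this, 100,000 human primary T cells per well spent 1 h at 37 °C with test compound in Yssel's medium. The counter-screen replaced antibody stimulation with PMA (0.5 ng/ml final) and ionomycin (0.1 uM final).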
A general note: ELISA stands for enzyme-linked immunosorbent assay.

The target of assay [2] is T1, PKC theta (Homo sapiens, UniProt Q04759).
T1 construct: purchased Upstate Biotechnologies, Temecula, CA 14-444
Briefly: PKC assay, fluorescence polarization (Example 2), PKC theta. Format: biochemical. The settings on record: 5 μM ATP. How it is done: The inhibition of PKC activity was measured by monitoring the production of phosphorylated peptide by fluorescence polarization at different concentrations of the inhibitor. Reactions were carried out in 96-well plate format with a total volume of 20 μL containing 20 mM HEPES, pH 7.4, 5 mM MgCl2, 0.2 mM CaCl2, 1 mM DTT, 0.02% Brij-35, 0.1 mg/mL phosphatidylserine, 0.02 mg/mL dioleoyl-sn-glycerol and 5 μM each of ATP and the peptide substrate. Compounds were first diluted serially in DMSO and then transferred to a solution containing the above concentrations of HEPES, MgCl2, CaCl2, DTT, and Brij-35 to yield 5× compound solutions in 2% DMSO, which was then added to the reaction solution. Reactions were initiated by the addition of PKC at a typical concentration as described in Table VI, and then allowed to incubate at room temperature for 20 min. At the end of this time, a combination of quench (EDTA) and detection (peptide tracer and antibody) reagents was added using the protocol of Invitrogen P2748.

T1 sequence (Q04759 whole entry): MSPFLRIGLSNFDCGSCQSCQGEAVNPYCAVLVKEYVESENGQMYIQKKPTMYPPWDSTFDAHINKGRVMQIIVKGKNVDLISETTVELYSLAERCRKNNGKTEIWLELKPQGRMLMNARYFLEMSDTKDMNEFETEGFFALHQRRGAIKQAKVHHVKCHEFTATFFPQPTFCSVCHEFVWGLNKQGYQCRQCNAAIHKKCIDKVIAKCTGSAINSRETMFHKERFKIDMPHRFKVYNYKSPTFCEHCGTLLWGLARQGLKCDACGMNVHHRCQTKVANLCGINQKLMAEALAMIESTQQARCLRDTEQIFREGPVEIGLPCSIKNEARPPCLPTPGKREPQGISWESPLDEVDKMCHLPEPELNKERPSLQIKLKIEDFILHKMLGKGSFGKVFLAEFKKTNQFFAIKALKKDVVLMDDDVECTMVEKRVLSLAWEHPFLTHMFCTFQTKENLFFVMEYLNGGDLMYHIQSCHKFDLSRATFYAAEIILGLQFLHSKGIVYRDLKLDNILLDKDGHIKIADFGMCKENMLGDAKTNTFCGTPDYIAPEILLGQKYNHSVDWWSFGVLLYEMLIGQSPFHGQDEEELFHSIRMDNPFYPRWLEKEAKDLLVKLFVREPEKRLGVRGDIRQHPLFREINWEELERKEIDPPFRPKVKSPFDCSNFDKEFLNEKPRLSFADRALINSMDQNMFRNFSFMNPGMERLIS

For `CN1CCC(Nc2nc(Nc3cccc(C#N)c3)ncc2F)CC1` [III-2, N2-(3-Cyano)phenyl-5-fluoro-N4-(1-methylpiperidin-4-yl)-2,4-pyrimidinediamine], the IC50 amounted to 1.06 µM in assay [1] and 0.13 µM in assay [2].

For the molecule `CN1CCC(Nc2nc(Nc3ccc(N4CCN(C)CC4)c(C(F)(F)F)c3)ncc2F)CC1` [III-3, 5-Fluoro-N2-[4-(4-methylpiperazino)-3-trifluoromethyl]phenyl-N4-(1-methylpiperidin-4-yl)-2,4-pyrimidinediamine], the IC50 in assay [1] came to 0.619 µM; in assay [2] it was 0.018 µM.

In the case of `CN1C(C)(C)CC(Nc2nc(Nc3cccc(-c4cc5ccccc5s4)c3)ncc2F)CC1(C)C` [Compound I-106], the IC50 is 0.527 µM in assay [1] and 0.239 µM in assay [2].

As for `CN1C(C)(C)CC(Nc2nc(Nc3ccc(NC(=O)c4ccco4)c(Cl)c3)ncc2F)CC1(C)C` [Compound I-339], the values for the IC50 in assay [1] and in assay [2] were 0.188 µM and 0.0318 µM, respectively.

As to `CN1C(C)(C)CC(Nc2nc(Nc3ccc(-c4ccncc4)c(C#N)c3)ncc2F)CC1(C)C` [Compound I-185], the values for the IC50 in assay [1] and in assay [2] were 0.299 µM and 0.00765 µM, respectively.

With `CN1C(C)(C)CC(Nc2nc(Nc3ccc(C#N)c(Cl)c3)ncc2Cl)CC1(C)C` [Compound I-35], the IC50 in assay [1] stood at 0.145 µM; in assay [2], 0.024 µM.

As to `CN1C(C)(C)CC(Nc2nc(Nc3ccc(-c4cccnc4)c(C#N)c3)ncc2F)CC1(C)C` [Compound I-186], the values for the IC50 in assay [1] and in assay [2] were 0.0924 µM and 0.00141 µM, respectively.

`Cc1ccc(Nc2ncc(F)c(NC3CC(C)(C)N(C)C(C)(C)C3)n2)cc1Br` [Compound I-160]: the half-inhibitory concentration (IC50) in assay [1] came out at 0.202 µM; in assay [2], 0.0326 µM.

For `CN1CCN(c2cccc(Nc3ncc(F)c(NC4CC(C)(C)N(C)C(C)(C)C4)n3)c2)CC1` [Compound I-2], the values for the IC50 in assay [1] and in assay [2] were 1.57 µM and 0.407 µM, respectively.

Consider `CCN1CCN(c2ccc(Nc3ncc(F)c(NC4CC(C)(C)N(C)C(C)(C)C4)n3)cn2)CC1` [Compound I-6], for which the half-maximal inhibitory concentration (IC50) in assay [1] came to 1.69 µM; in assay [2], 0.18 µM.

As for `CN1C(C)(C)CC(Nc2nc(Nc3ccc(S(N)(=O)=O)cc3)ncc2F)CC1(C)C` [Compound I-9], the IC50 stood at 3.44 µM in assay [1] and 0.086 µM in assay [2].

With `CN1C(C)(C)CC(Nc2nc(Nc3cc(C(F)(F)F)cc(C(F)(F)F)c3)ncc2F)CC1(C)C` [Compound I-146], the IC50 in assay [1] is 0.252 µM; in assay [2], 0.123 µM.

Take `Cc1ccc(Nc2ncc(F)c(NC3CC(C)(C)N(C)C(C)(C)C3)n2)cc1Cl` [Compound I-332]: the IC50 came out at 0.299 µM in assay [1] and 0.036 µM in assay [2].

With `CN1C(C)(C)CC(Nc2nc(Nc3ccc(-c4ccncc4)cc3)ncc2F)CC1(C)C` [Compound I-123], the IC50 was 0.872 µM in assay [1] and 0.0808 µM in assay [2].

Regarding `CN1CCN(c2ccc(Nc3ncc(C#N)c(NC4CC(C)(C)N(C)C(C)(C)C4)n3)cc2C(F)(F)F)CC1` [Compound I-94], the figures for the IC50 in assay [1] and in assay [2] were 0.443 µM and 0.0117 µM, respectively.

Take `Cc1ccc2cc(Nc3ncc(F)c(NC4CC(C)(C)N(C)C(C)(C)C4)n3)ccc2n1` [II-7]: the IC50 is 0.476 µM in assay [1] and 0.0532 µM in assay [2].

In the case of `CN1C(C)(C)CC(Nc2nc(Nc3ccc(-c4cccnc4)c(Cl)c3)ncc2F)CC1(C)C` [Compound I-154], the IC50 in assay [1] worked out at 0.261 µM; in assay [2] it was 0.00381 µM.

As for `Cc1cc(N2CCN(C)CC2)ncc1Nc1ncc(F)c(NC2CC(C)(C)N(C)C(C)(C)C2)n1` [Compound I-8], the IC50 in assay [1] came out at 5.81 µM; in assay [2] it was 0.213 µM.

As for `CC1(C)CC(Nc2nc(Nc3ccc4c(c3)oc(=O)n4CC3CC3)ncc2C#N)CC(C)(C)N1` [II-97], the IC50 in assay [1] was 0.5 µM; in assay [2] it was 0.0025 µM.

As for `CN1C(C)(C)CC(Nc2nc(Nc3cc(Br)cc(C(F)(F)F)c3)ncc2F)CC1(C)C` [Compound I-162], the IC50 in assay [1] is 0.553 µM; in assay [2], 0.0686 µM.

As to `CN1C(C)(C)CC(Nc2nc(Nc3ccc(N4CCN(S(=O)(=O)C5CC5)CC4)c(Cl)c3)ncc2F)CC1(C)C` [Compound I-174], the IC50 in assay [1] came out at 0.27 µM; in assay [2], 0.0107 µM.

On to `CC1CN(c2cc(Nc3ncc(F)c(NC4CC(C)(C)N(C)C(C)(C)C4)n3)ccc2Cl)CC(C)N1C` (stereo not shown) [Compound I-250], for which the IC50 was determined as 1.5 µM in assay [1] and 1.04 µM in assay [2].

As for `CN1C(C)(C)CC(Nc2nc(Nc3ccc(N4CCN(S(C)(=O)=O)CC4)c(C#N)c3)ncc2F)CC1(C)C` [Compound I-164], the IC50 in assay [1] came out at 0.223 µM; in assay [2], 0.00216 µM.

`CN1C(C)(C)CC(Nc2nc(Nc3ccc(Br)c(C(F)(F)F)c3)ncc2F)CC1(C)C` [Compound I-109]: the half-maximal inhibitory concentration (IC50) amounted to 0.345 µM in assay [1] and 0.107 µM in assay [2].

With `CN1C(C)(C)CC(Nc2nc(Nc3ccc(N4CCC(F)(F)CC4)c(C(F)(F)F)c3)ncc2F)CC1(C)C` [Compound I-245], the IC50 in assay [1] worked out at 0.539 µM; in assay [2] it was 0.329 µM.

Take `CN1C(C)(C)CC(Nc2nc(Nc3ccc(-c4ccoc4)c(C(F)(F)F)c3)ncc2F)CC1(C)C` [Compound I-328]: the figures for the IC50 in assay [1] and in assay [2] were 0.288 µM and 0.0457 µM, respectively.

Consider `COc1ccc(Nc2ncc(F)c(NC3CC(C)(C)NC(C)(C)C3)n2)cc1Cl` [Compound I-254], for which the half-maximal inhibitory concentration (IC50) in assay [1] was determined as 0.488 µM; in assay [2], 0.0539 µM.

`CN1C(C)(C)CC(Nc2nc(Nc3ccc(Br)c(Cl)c3)ncc2F)CC1(C)C` [Compound I-153]: the IC50 in assay [1] was found to be 0.209 µM; in assay [2], 0.0102 µM.

Regarding `CN1C(C)(C)CC(Nc2nc(Nc3ccc(C(F)(F)F)c(Cl)c3)ncc2F)CC1(C)C` [Compound I-337], the IC50 in assay [1] came out at 0.311 µM; in assay [2], 0.249 µM.

`CN1C(C)(C)CC(Nc2nc(Nc3ccc(-c4cnn(C)c4)c(C(F)(F)F)c3)ncc2F)CC1(C)C` [Compound I-126]: the IC50 in assay [1] was 0.243 µM; in assay [2], 0.012 µM.

Consider `Cc1cc(Nc2ncc(F)c(NC3CC(C)(C)N(C)C(C)(C)C3)n2)cnc1N1CCN(C)CC1` [Compound I-7], for which the IC50 in assay [1] was found to be 0.53 µM; in assay [2], 0.016 µM.

Take `Cc1cc(Nc2ncc(F)c(NC3CC(C)(C)N(C)C(C)(C)C3)n2)ccc1-c1ccncc1` [Compound I-120]: the IC50 in assay [1] was 0.366 µM; in assay [2] it was 0.0295 µM.

Regarding `CN1C(C)(C)CC(Nc2nc(Nc3cccc(C#N)c3)ncc2F)CC1(C)C` [Compound I-26], the figures for the IC50 in assay [1] and in assay [2] were 0.059 µM and 0.003 µM, respectively.

For `CC1(C)CC(Nc2nc(Nc3cccc(C#N)c3)ncc2F)CC(C)(C)N1` [Compound I-70], the IC50 was 0.517 µM in assay [1] and 0.0387 µM in assay [2].

On to `COc1ccc(Nc2ncc(F)c(NC3CC(C)(C)N(C)C(C)(C)C3)n2)cc1Br` [Compound I-159], for which the figures for the IC50 in assay [1] and in assay [2] were 0.296 µM and 0.00729 µM, respectively.

`CC(=O)N1C(C)CN(c2cc(Nc3ncc(F)c(NC4CC(C)(C)N(C)C(C)(C)C4)n3)ccc2Cl)CC1C` (stereo not shown) [Compound I-251]: the IC50 amounted to 0.384 µM in assay [1] and 0.379 µM in assay [2].

With `CN1C(C)(C)CC(Nc2nc(Nc3ccc(N4CCOCC4)c(C#N)c3)ncc2F)CC1(C)C` [Compound I-198], the IC50 worked out at 0.175 µM in assay [1] and 0.00194 µM in assay [2].

With `COc1ccc(Nc2ncc(Cl)c(NC3CC(C)(C)N(C)C(C)(C)C3)n2)cc1Cl` [Compound I-31], the IC50 turned out to be 0.091 µM in assay [1] and 0.005 µM in assay [2].

Take `CN1CCN(c2ccc(Nc3ncc(F)c(NC4CC(C)(C)N(C)C(C)(C)C4)n3)cc2Cl)CC1` [Compound I-3]: the IC50 in assay [1] was found to be 0.108 µM; in assay [2] it was 0.005 µM.

Regarding `N#Cc1cccc(Nc2ncc(F)c(NC3CCN(CCO)CC3)n2)c1` [III-6, N2-(3-Cyano)phenyl-5-fluoro-N4-[1-(2-hydroxyethyl)piperidin-4-yl]-2,4-pyrimidinediamine], the IC50 came to 1.56 µM in assay [1] and 0.255 µM in assay [2].

For the molecule `CN1C(C)(C)CC(Nc2nc(Nc3ccc(-c4cccnc4)cc3)ncc2F)CC1(C)C` [Compound I-124], the figures for the IC50 in assay [1] and in assay [2] were 0.54 µM and 0.0557 µM, respectively.

Take `CN1C(C)(C)CC(Nc2nc(Nc3ccc(-c4ccoc4)cc3)ncc2F)CC1(C)C` [Compound I-125]: the figures for the IC50 in assay [1] and in assay [2] were 0.892 µM and 0.111 µM, respectively.

In the case of `CN1C(C)(C)CC(Nc2nc(Nc3ccc(-c4ccncc4)c(F)c3)ncc2F)CC1(C)C` [Compound I-115], the IC50 was found to be 0.287 µM in assay [1] and 0.0219 µM in assay [2].

With `CN1C(C)(C)CC(Nc2nc(Nc3ccc(N4CCN(S(C)(=O)=O)CC4)c(C(F)(F)F)c3)ncc2C#N)CC1(C)C` [Compound I-95], the IC50 worked out at 0.347 µM in assay [1] and 0.043 µM in assay [2].

`CN1C(C)(C)CC(Nc2nc(Nc3ccc(N4CCN(S(=O)(=O)C5CC5)CC4)c(C(F)(F)F)c3)ncc2F)CC1(C)C` [Compound I-173]: the IC50 was 0.377 µM in assay [1] and 0.0266 µM in assay [2].

As for `CCN1C(=O)CCc2cc(Nc3ncc(F)c(NC4CC(C)(C)N(C)C(C)(C)C4)n3)ccc21` [II-5], the IC50 in assay [1] amounted to 0.561 µM; in assay [2] it was 0.0378 µM.

Consider `CN1CCC(Nc2nc(Nc3ccc(N4CCN(C)CC4)c(Cl)c3)ncc2F)CC1` [III-4, N2-[3-Chloro-4-(4-methylpiperazino)]phenyl-5-fluoro-N4-(1-methylpiperidin-4-yl)-2,4-pyrimidinediamine], for which the IC50 was 1.68 µM in assay [1] and 0.0324 µM in assay [2].
